Measurements reported in US10188695B2, “Calcineurin inhibitors for use in the treatment of lesional vestibular disorders” (Institut National De La Santé Et De La Recherche Médicale, priority 2012, dated 2019).

Test system: excitotoxically induced lasting vestibular deficits
Experiment: Kainic acid excitotoxic vestibular lesion in rats, spontaneous nystagmus by infra-red videonystagmography (FK-506 treatment)
Format: in vivo, rat
Settings: t=24 h
Protocol: Two inverted 3 mm bolts partially encased in dental acrylic were surgically fixed to the skull of female Long-Evans rats under deep ketamine-xylazine anesthesia using self-tapping surgical screws and cyanoacrylate. Each animal was allowed to recover for 1 week before experiencing 4 training sessions with head fixation (5-10 min) of increasing duration in the week preceding the experiments.
Under visual control using a surgical microscope, each rat received transtympanic injections of 50 μL 15 mM kainic acid in physiological serum with 10 mg/mL benzyl alcohol at t=0 h and 25 μL 15 mM kanic acid in physiological serum with 10 mg/mL benzyl alcohol at t=2 h.
At t=1 h the behaviorally associated vestibular deficits of each transtympanically injected animal was determined using 5 classical criteria each scored on a 0-4 scale: Circling, head-bobbing, degree of head-tilt, tail-hanging reflex deficit and air-righting reflex deficit. […]
Spontaneous eye-movements were recorded at t=1 h and t=24 h in the dark using an ISCAN ETL-200 infra-red videooculography system under head-fixed conditions. […]
The spontaneous nystagmus frequency in videooculography traces recorded at t=1 h (pre-treatment) and t=24 h (chronic deficit) was determined using custom routines written in MatLab R2011b (The Mathworks, Natick, Mass.). […]

## C=CC[C@@H]1/C=C(\C)C[C@H](C)C[C@H](OC)[C@H]2O[C@@](O)(C(=O)C(=O)N3CCCC[C@H]3C(=O)O[C@H](/C(C)=C/[C@@H]3CC[C@@H](O)[C@H](OC)C3)[C@H](C)[C@@H](O)CC1=O)[C@H](C)C[C@@H]2OC [FK-506, tacrolimus]
Normalized to group mean at t=1 h, single i.p. injection 2.5 mg/kg at t=1 h, Long-Evans rats, in the dark
  normalized chronic spontaneous nystagmus frequency: 26.9±11.8%
Single i.p. injection 2.5 mg/kg, p=0.014
  reduction of lasting vestibular deficits (spontaneous nystagmus in the dark) vs sham: 43%
